Among the data in PubChem BioAssay (NCI) are GI50 and TGI values, retold here.

Among the test systems are SNB-19 CNS; NCI/ADR-RES ovarian; SN12C renal; IGROV1 ovarian; CAKI-1 renal; CCRF-CEM leukemia; NCI-H460 lung; SF-268 CNS; RXF 393 renal; U251 CNS.
What all share (assay): NCI anticancer screen, dose series, 48 h

SMILES strings stand for the structures. Values joined by “and” are separate entries in the source; they are usually repeats but may differ in a detail not shown here. Identical values can stand only once.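 These data come from cells grown in 96-well plates and exposed to compound for 48 hours at five concentrations. GI50 = concentration required for 50% inhibition of growth. TGI is the concentration that stops growth completely.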

With `COc1ccc(C2CC(c3ccc4ccccc4c3)=NN2c2nc(O)c(C3=c4cc(OC)ccc4=NC3=O)s2)cc1` (stereo not given), the GI50 with SNB-19 CNS is 0.0897 µM; in the assay with NCI/ADR-RES ovarian it was 1.89 µM; with SN12C renal it was 0.166 µM; in the assay with IGROV1 ovarian, 0.0641 µM; in the assay with CAKI-1 renal it was 0.349 µM; with CCRF-CEM leukemia, 0.284 µM. Besides, the GI50 in the assay with NCI-H460 lung was 0.0226 µM; with SF-268 CNS, 0.0615 µM; in the assay on RXF 393 renal, 0.0266 µM; in the assay on U251 CNS, 0.0323 µM. In addition, the TGI is 0.592 µM in the assay on SNB-19 CNS; over 100 µM in the assay with NCI/ADR-RES ovarian; 0.464 µM with SN12C renal; 0.388 µM in the assay with IGROV1 ovarian; over 43.3 µM in the assay on CCRF-CEM leukemia; 0.0473 µM in the assay with NCI-H460 lung. Moreover, the TGI with SF-268 CNS was determined as 0.241 µM; in the assay on RXF 393 renal it was 0.0831 µM; in the assay with U251 CNS, 0.0975 µM.

Consider `O=c1[nH]c2ccccc2n2cc3ccccc3c12`, for which the GI50 in the assay with SNB-19 CNS is 8.93 µM; in the assay with NCI/ADR-RES ovarian it was 6.45 µM; with SN12C renal, 1.67 µM; in the assay with IGROV1 ovarian it was 10.3 µM; in the assay on CAKI-1 renal, 17.6 µM; with CCRF-CEM leukemia, 5.93 µM. Besides, the GI50 in the assay with NCI-H460 lung is 7.8 µM; in the assay with SF-268 CNS, 21.6 µM; with RXF 393 renal it was 6.26 µM; in the assay with U251 CNS it was 3.25 µM. The TGI in the assay on SNB-19 CNS is over 100 µM; in the assay with NCI/ADR-RES ovarian, 32.1 µM; in the assay with SN12C renal, 6.32 µM; in the assay with IGROV1 ovarian, 25.4 µM; in the assay on CAKI-1 renal, 35.5 µM; in the assay on CCRF-CEM leukemia, 60.5 µM. Moreover, the TGI in the assay with NCI-H460 lung was over 100 µM; in the assay with SF-268 CNS, 87.1 µM; in the assay on RXF 393 renal it was 29.9 µM; with U251 CNS, 13.4 µM.

Turning to `O=C(/C=C/c1cccc(S(=O)(=O)Nc2ccccc2)c1)NO`, the GI50 in the assay on SNB-19 CNS was 0.841 µM and 0.835 µM; in the assay with SN12C renal, 1.68 µM and 0.244 µM; in the assay with IGROV1 ovarian, 0.623 µM and 0.116 µM; with CAKI-1 renal it was 0.401 µM and 0.462 µM; in the assay with NCI-H460 lung it was 0.376 µM and 0.116 µM; with SF-268 CNS, 1.22 µM and 0.324 µM. Also, the GI50 in the assay with RXF 393 renal was 0.342 µM and 0.101 µM; in the assay on U251 CNS it was 0.597 µM and 0.496 µM. Besides, the TGI is 19.5 µM and 41.5 µM in the assay with SNB-19 CNS; 6.51 µM in the assay with NCI/ADR-RES ovarian; 4.43 µM and > 26.6 µM with IGROV1 ovarian; 2.48 µM and 1.86 µM in the assay on CAKI-1 renal; 58.2 µM and > 100 µM in the assay with CCRF-CEM leukemia; 34 µM and 5.42 µM in the assay on NCI-H460 lung. The TGI in the assay on SF-268 CNS was 15.6 µM and 8.91 µM; in the assay with RXF 393 renal, 1.79 µM and 1.88 µM; with U251 CNS, 4.38 µM and 10.7 µM.

As for `O=[N+]([O-])/C=C/c1cc2ccc3ccccc3c2[nH]1`, the TGI with SNB-19 CNS was 7.79 µM; in the assay on NCI/ADR-RES ovarian, 6.87 µM; in the assay with SN12C renal, 3.81 µM; in the assay with IGROV1 ovarian, 1.89 µM; in the assay on CAKI-1 renal it was 6.15 µM; in the assay with CCRF-CEM leukemia, 2.8 µM. The TGI was 5.61 µM in the assay on NCI-H460 lung, 4.02 µM with SF-268 CNS, 2.96 µM in the assay on RXF 393 renal and 2.95 µM in the assay on U251 CNS.

Turning to `Cc1cc(=O)oc2cc(OC(=O)Nc3ccccc3)ccc12`, the TGI in the assay on SNB-19 CNS was over 100 µM; in the assay with NCI/ADR-RES ovarian it was over 100 µM; in the assay with SN12C renal it was over 100 µM; with IGROV1 ovarian, over 100 µM; in the assay with CAKI-1 renal, over 100 µM; in the assay with CCRF-CEM leukemia, 74.2 µM. Besides, the TGI in the assay with NCI-H460 lung, in the assay with SF-268 CNS, in the assay with RXF 393 renal and in the assay on U251 CNS was over 100 µM each time.

With `CCC(C)(C)[C@H](NC(=O)[C@H]1CCCCN1C)C(=O)N(C)[C@H](C[C@@H](OC(C)=O)c1nc(C(=O)N[C@@H](Cc2ccccc2)C[C@H](C)C(=O)O)cs1)C(C)C`, the GI50 was under 0.00167 µM in the assay on SNB-19 CNS; 0.00342 µM with NCI/ADR-RES ovarian; under 0.00167 µM with SN12C renal; under 0.00167 µM in the assay on IGROV1 ovarian; under 0.00167 µM in the assay with CAKI-1 renal; under 0.00167 µM in the assay with CCRF-CEM leukemia. The GI50 with NCI-H460 lung is under 0.00167 µM; in the assay on SF-268 CNS, 0.00217 µM; with RXF 393 renal, under 0.00167 µM; in the assay on U251 CNS, under 0.00167 µM. Also, the TGI in the assay on SNB-19 CNS, with NCI/ADR-RES ovarian, in the assay with SN12C renal, in the assay on IGROV1 ovarian, with CAKI-1 renal and with CCRF-CEM leukemia was over 16.7 µM each time. In addition, the TGI in the assay with NCI-H460 lung, with SF-268 CNS and with U251 CNS was over 16.7 µM in each case.

Regarding `O=Cc1ccc(-c2ccc(-c3ccc(C=O)o3)[se]2)o1`, the GI50 with SNB-19 CNS is over 100 µM; in the assay with NCI/ADR-RES ovarian, over 100 µM; with SN12C renal, over 100 µM; with IGROV1 ovarian, over 65.9 µM; in the assay on CAKI-1 renal it was over 100 µM; with CCRF-CEM leukemia it was over 100 µM. In addition, the GI50 is over 100 µM with NCI-H460 lung, over 95.4 µM in the assay on SF-268 CNS, 55.8 µM in the assay with RXF 393 renal and 44.8 µM with U251 CNS. In addition, the TGI in the assay on SNB-19 CNS, with NCI/ADR-RES ovarian, in the assay with SN12C renal, with IGROV1 ovarian, in the assay with CAKI-1 renal and in the assay with CCRF-CEM leukemia was over 100 µM throughout. Moreover, the TGI with NCI-H460 lung, in the assay on SF-268 CNS, in the assay on RXF 393 renal and with U251 CNS was over 100 µM in each case.
